Measurements as given in patent US8247565B2, “Sirtuin modulating compounds” (Sirtris Pharmaceuticals, Inc., priority 2007, dated 2012).
Where a name gives a salt, the structure may show the parent alone.

Tests used:
[1] = Salt/free base screening by DSC and TGA (physical stability, polymorphs); format: physicochemical; details: for polymorphism / phase changes on heating (DSC, TGA): thermal range evaluated by DSC/TGA (FIGS. 1, 2)
Procedure: Eight acceptable (Regulatory and pKa) salts were made of Compound 1, namely with hydrochloric acid, sulfuric acid, methanesulfonic acid, maleic acid, phosphoric acid, L-tartaric acid, citric acid, and malic acid. The resulting salts or the free base were then screened on: • 1) Processing, morphology, polymorphs; • 2) Crystal shape, single stable polymorph; • 3) Physical stability; • 4) Open dish accelerated stability (40° C./75% RH); and • 5) Biorelevant dissolution.
Since no other thermal transitions are observed in the DSC or TGA results, it appears Compound 1 exists only as a single phase (i.e. no polymorphs) over the thermal range evaluated.
Since the polymorphic transitions can have significant effects on dissolution and bioavailability of the drug substance, it is practical to select forms of the drug substance that minimize or eliminate the potential for phase transitions.

[2] = test system: diet induced obesity model (DIO); assay: Blood glucose in diet induced obesity (DIO) mouse model; format: in vivo, C57BL/6 male mice; details: DIO mice; for blood glucose vs vehicle: from week 2 onwards (FIGS. 3-5); for week 4 fed glucose test vs vehicle: blood glucose remained lower than vehicle
Source text: (§1) The purpose of this example was to compare the efficacy of Compound 1 in salt and free base formulations in two different mouse models of diabetes, a diet induced obesity model (DIO) and the Ob/ob mouse. Blood glucose was the main determinant through the experiment of efficacy.
For the diet induced obesity model, six week old C57BL/6 male mice (Charles River Labs) were fed a high fat diet (60% calories from fat; Research Diets) for approximately 6 weeks until their body weight reached approximately 40 g. Test compounds were administered daily via oral gavage at the indicated doses. The vehicle used was 2% HPMC and 0.2% DOSS. Individual mouse body weights were measured twice weekly. Every 2 weeks throughout the study, mice from each group were bled via the tail vein for determination of blood glucose. Statistical analysis was completed using the JMP program (Version 6). Data were analyzed by a one way ANOVA with comparison to control using a Dunnett's Test. A p value <0.05 indicated a significant difference between groups.
Compound 1 in the free base form was then tested in the DIO model.

Ob/ob mouse = assay: Blood glucose in Ob/ob mouse model; format: in vivo; details: ob/ob mice, free base 100 mg/kg
Source text: as §1
Ob/ob mice are genetically manipulated knockout mice that lack leptin, an important satiety protein that neurologically signals the end of hunger. The leptin mutation is homozygous and a heterozygous strain is included as a control (Ob/+); this group should not show increased weight or blood glucose, aside from the normal effects of being on a high fat diet.
During week 1, there is already a decrease in blood glucose of almost 60 mg/dL from the vehicle group. This trend continued for the fasted glucose at week 2 (FIG. 7) as the Compound 1 group had 158.3 mg/dL glucose compared to 285.3 mg/dL glucose in the vehicle group.

Compound: Cc1nc(-c2cccnc2)sc1C(=O)Nc1ccccc1-c1cn2c(CN3CCOCC3)csc2n1 [HCl salt form of Compound 1]
- hygroscopicity ([1]; TGA weight loss on heating attributed to water loss): hygroscopic
- polymorphism / phase changes on heating (DSC, TGA) [1]: transitions between polymorphic forms

Compound: Oc1ccc(C=Cc2cc(O)cc(O)c2)cc1 [resveratrol, reference compound]
- blood glucose vs vehicle ([2]; 1000 mg/kg/day oral gavage): significant reductions in blood glucose
- week 4 fed glucose test vs vehicle ([2]; 1000 mg/kg/day): significance was lost

Compound: CN(C)C(=N)N=C(N)N [metformin, reference compound]
- blood glucose vs vehicle ([2]; 400 mg/kg/day oral gavage): significant reductions in blood glucose

Compound: O=C(Nc1ccccc1-c1cn2c(CN3CCNCC3)csc2n1)c1cnc2ccccc2n1 [Compound 2, N-(2-(3-(piperazin-1-ylmethyl)imidazo[2,1-b]thiazol-6-yl)phenyl)quinoxaline-2-carboxamide]
- blood glucose vs vehicle ([2]; 100 mg/kg/day oral gavage): significant reductions in blood glucose
- week 4 fed glucose test vs vehicle ([2]; 100 mg/kg/day): significance was lost

Compound: Cc1nc(-c2cccnc2)sc1C(=O)Nc1ccccc1-c1cn2c(CN3CCOCC3)csc2n1 [Compound 1, 4-methyl-N-(2-(3-(morpholinomethyl)imidazo[2,1-b]thiazol-6-yl)phenyl)-2-(pyridin-3-yl)thiazole-5-carboxamide]
- blood glucose vs vehicle ([2]; 100 mg/kg/day oral gavage): significant reductions in blood glucose
- blood glucose vs vehicle group at weeks 2 and 3 ([2]; free base 100 mg/kg/day, weeks 2 (fed) and 3 (fasted), p value less than 0.01): significant decrease
- decrease in blood glucose from the vehicle group (Ob/ob mouse; week 1 (FIG. 6)): ~60 mg/dL
- fasted blood glucose (Ob/ob mouse; week 2 fasted (FIG. 7), vehicle group 285.3 mg/dL, p less than 0.0001): 158.3 mg/dL
- blood glucose relative to vehicle groups (Ob/ob mouse; week 3 fed (FIG. 8)): significant (p<0.01) decrease
- polymorphism / phase changes on heating (DSC, TGA) [1]: no polymorphs
